The subject of experiment [1] is ACHN cancer cell population. The experiment in a line: Sulforhodamine B (SRB) assay. Format: cell-based, Human. The procedure:
Cells (10,000 cells/well, 100 μL) were incubated in a 96-well microtiter plate. After 24 hours of the incubation, drug (100 μL) was added to each of the wells, and the culture was further incubated at 37° C. for 48 hours. The cells were then fixed in TCA (50 μL per well). The plates were incubated at 4° C. for a minimum of 1 hour or a maximum of 3 hours. The liquid was removed from the plates, and then the plate was washed five times with water and then dried at room temperature (RT) for about 12-24 hours. The fixed cells were stained with 100 μL SRB for 5 minutes at room temperature. After the staining, the plate was washed three times with 1% (w/v) glacial acetic acid and dried at room temperature for about 12-24 hours. Next, the SRB was then dissolved in 10 mM Trizma base, and the absorbance was measured at 515 nm. The effect of the drug was expressed as GI50 (50% growth inhibition).
Specifically, each of the LDD3732, LDD3922, and LDD3959 in concentrations of 10^−9, 10^−8, 10^−7, 10^−6, and 10^−5 M were tested, and the percentage decrease in the control value of SRB was measured using an ACHN cancer cell population.
A general note: The SRB assay estimates cell density from bound dye.

The subject of another experiment is p53. The experiment in a line: P53 rescue test using western blotting. The format is cell-based. To be noted: low to high concentration, cancer cell lines. Here is the method:
Whole cell lysates were prepared using a radioimmunoprecipitation assay (RIPA) buffer (150 mM sodium chloride, 1.0% (w/v) IGEPAL® CA-630 (NP-40), 0.5% (w/v) sodium deoxycholate, 0.1% (w/v) sodium dodecyl sulfate (SDS), a protease inhibitor cocktail, and 50 mM Tris-HCl (pH 8.0) containing a phosphatase inhibitor cocktail. Protein assays were performed through Bradford protein assay (Thermo Scientific, Waltham, MA, USA) to normalize protein expression. The proteins were resolved by SDS-PAGE and transferred to polyvinylidene difluoride (PVDF) membranes (Merck Millipore, Burlington, MA, USA). The membranes were blocked with 5% (w/v) BSA for 1 hour at room temperature and incubated overnight at 4° C. with labeled antibodies. Membranes were washed in TBS-T for 1 hour at room temperature and incubated together with a horseradish peroxidase (HRP)-bound secondary antibody for 1 hour at room temperature. Finally, the membranes were washed in TBS-T for 1 hour at room temperature and developed with enhanced chemiluminescence.
(In general: Immunoblotting shows a protein as a band on a membrane.)

In another experiment the test system is ACHN cells. The experiment in a line: Preclinical xenograft tumor model (ACHN, BALB/c nude mice). Format: in vivo. Particulars: 1 mg/kg or 10 mg/kg PO once daily, 5 days per week. Here is the method:
Six-week-old male-specific, pathogen-free BALB/c nude mice (n=20) were purchased from the central lab (Animal Inc., Seoul, Korea). Each mouse was injected subcutaneously with ACHN cells (5.0×10^6 cells/each). When tumors reached an appropriate size (100 to 150 mm^3 for ACHN), mice were randomly selected and classified into 4 groups (n=4 to 5) according to the volume and weight of the tumor: The control group was untreated; the streptonigrin-treated group was administered in an amount of 0.2 mg/kg; and the LDD3959-treated group was administered in an amount of 1 mg/kg or 10 mg/kg. The streptonigrin and LDD3959 were orally administered to each treatment group, once daily for 5 days per week. For tumor identification, the mice were euthanized with 7.5% CO2 and the tumors were recovered for immunohistochemical analysis. The tumor volume was calculated according to the following equation: V=(A×B×B)/2 where V is the volume (mm^3), A is the long diameter (mm), and B is the short diameter (mm). The experiment was reviewed and approved by the Institutional Animal Care and Use Committee (IACUC) of the National Cancer Center Research Institute (NCCRI). […]

Another experiment relates to renal cancer cell lines. The experiment in a line: Cell viability in various renal cancer cell lines (water soluble tetrazolium salt). Format: cell-based. Particulars: various concentrations, 48 hours. The procedure: Cells (20,000 cells/well, 100 μl) were incubated in a 96-well microplate. After 24 hours of the incubation, LDD3959 […] were added to each well in various concentrations by using a serum-free cell culture medium, and the cells were cultured at 37° C. in the presence of 5% CO2 for 2 hours. Next, the existing culture medium was replaced with a culture medium containing 10% FBS, and then incubation was carried out again for 48 hours. The existing culture medium was removed, and a new culture medium containing a water soluble tetrazolium salt was added. After that, the plate was incubated at 37° C. in the presence of 5% CO2 for a duration in the range of 1 hour to 3 hours, and then absorbance was measured at 450 nm.

The next experiment concerns MDA-MB231 cells. The experiment is described as follows: Cell viability in breast cancer cell lines according to concentration. Format: cell-based. Here is the method:
First breast cancer cells (MDA-MB-453, HCC-1806, HCC-1937: 10,000 cells/well, 100 μl) and second breast cancer cells (MDA-MB-231, MCF-7: 10,000 cells/well, 100 μl) were cultured in 96-well microplates.
After 24 hours, LDD3959 […] of various concentrations were added to each well, using a serum-free cell culture medium, and a reaction was allowed to proceed for 2 hours at 37° C. in the presence of 5% CO2. The culture medium was replaced with a culture medium containing 10% FSB, and a reaction was performed for 72 hours.
The existing culture medium was removed, and a new culture medium containing a water soluble tetrazolium salt was added. After that, the plate underwent a reaction at 37° C. in the presence of 5% CO2 for a duration in the range of 1 hour to 3 hours, and then absorbance was measured at 450 nm.

Another experiment has as its system MDA-MB-231 cells. The experiment in a line: Protein expression level change in TNBC breast cancer cells according to treatment time, western blot. The format is cell-based. To be noted: MDA-MB-231, 24, 48 and 72 hours.
For experiment [2], the system named is MDA-MB231 breast cancer cells. The experiment is described as follows: Antitumor effects in in vivo breast cancerous tumors, MDA-MB231 xenograft. Also on record: species or system mice. The procedure:
To examine the antitumor effect of LDD3959, CanN.Cg-Foxn1nu/CrljOri mice were used as experimental animals. The mice were xenografted with MDA-MB231 breast cancer cells to induce tumors. The MDA-MB231 breast cancer cell-transplanted group was divided into two groups: an oral administration group and an intraperitoneal administration group. In this test, the oral administration was performed daily and the intraperitoneal administration was performed twice a week.

A further experiment concerns 430 kinds of kinases. The experiment in a line: Kinase panel assay conducted by Eurofins. Format: biochemical. The procedure:
A total of 430 kinds of kinases were treated with 1 μM of LDD3959 through a kinase panel assay conducted by Eurofins to examine each activity.
The ATP concentration used in this experiment was 10 μM.

The term GI50 denotes the concentration that inhibits growth by half. Regarding `O=C1C(Cl)=C(Cl)C(=O)c2[nH]c(-c3ccc(Br)c(F)c3)nc21` [LDD3959, 2-(4-bromo-3-fluorophenyl)-5,6-dichloro-1H-benzo[d]imidazole-4,7-dione], the GI50 in experiment [1] (Homo sapiens, 48 hours, read-out: GI50 (50% growth inhibition)) was 2.5 µM. In addition, the “SRB measurement (percentage decrease in the control value of SRB)” value in experiment [1] (concentration of 10^−5 M, 48 hours) is on record as −11.87. Also, the “decrease in cell counts” value in experiment [1] (concentrations 10^−6 M or lower) was “no significant decrease in cell counts”. In addition, in the experiment on p53, the “p53 rescue effect (Western blot band of p53)” value is given as “dose-dependent p53 rescue effects”. The “tumor volume increase rate” value with ACHN cells is on record as “tumor volume increase rate decreased as the LDD3959 dose increased”. Also, the “cell viability in renal cancer cells” value with renal cancer cell lines was “cancer cells in a variety of renal cancer cells were killed”. Also, in the experiment with MDA-MB231 cells (MDA-MB231, highest expression level of transglutaminase 2, 72 hours), the “effective concentration for apoptosis” value was “the effective concentration was lowest, and the efficacy was best”. The “acting concentration compared with conventional transglutaminase 2 inhibitors” value with MDA-MB231 cells (breast cancer cell lines) was “lower concentrations than conventional transglutaminase 2 inhibitors”. Also, in the experiment with MDA-MB-231 cells, the AKT/mTOR signals entry is recorded as “AKT/mTOR signals were inhibited” and the NFκB complexes result is given as “NFκB complexes were inhibited”. The antitumor effect entry in experiment [2] (intraperitoneal administration twice a week) is “concentration-dependent antitumor effects”. Besides, the antitumor effect result in experiment [2] (oral administration daily) is listed as “concentration-dependent antitumor effects”. In addition, the “number of kinases that specifically showed inhibition” value in the experiment on 430 kinds of kinases (430 kinases treated with 1 μM) was 4. For the same molecule, the “inhibitory activity against the 4 kinases” value in the experiment on 430 kinds of kinases (highest concentration 1 μM, ATP 10 μM) is on record as “very good inhibitory activity”.

For the origin of these results see patent publication US20240300902A1, “NOVEL TRANSGLUTAMINASE 2 INHIBITOR AND USE THEREOF” (MD BIOLAB CO., LTD., priority 2021, published 2024).
